≈ marks a conversion by molar mass, not a printed value.
What was measured:
Leishmania donovani [1] = assay: Antileishmanial activity against Leishmania donovani promastigotes at 50 uM; type: functional
Leishmania donovani [2] = assay: Antileishmanial activity against Leishmania donovani promastigotes at 25 uM; type: functional
Leishmania donovani [3] = assay: Immunosuppressive activity in Leishmania donovani assessed as inhibition of PGE2 production; type: functional, organism-based
Leishmania donovani [4] = assay: Antileishmanial activity against Leishmania donovani amastigotes assessed as reduction in microbial growth; type: functional, organism-based
Leishmania amazonensis [5] = assay: Antileishmanial activity against Leishmania amazonensis promastigotes assessed as reduction in parasite viability after 48 hrs by MTT assay; type: functional, organism-based
Leishmania amazonensis [6] = assay: Antileishmanial activity against Leishmania amazonensis MHOM/BR/1989/166MJO promastigotes assessed as reduction in […] growth; type: functional, organism-based
J774.A1 = assay: Cytotoxicity against mouse J774.A1 cells assessed as reduction in cell viability incubated for 24 hrs by MTT assay; type: functional
Leishmania amazonensis [7] = assay: Antileishmanial activity against Leishmania amazonensis MHOM/BR/1989/166MJO promastigotes infected in mouse macrophage assessed as parasite growth inhibition measured after 72 hrs by MTT assay; type: functional, organism-based
Leishmania tropica [8] = assay: Antileishmanial activity against Leishmania tropica promastigotes incubated for 24 hrs measured by alamar blue staining based fluorescence analysis; type: functional, organism-based
Leishmania tropica [9] = assay: Antileishmanial activity against Leishmania tropica amastigotes incubated for 24 hrs measured by alamar blue staining based fluorescence analysis; type: functional, organism-based
Leishmania major [10] = assay: Antileishmanial activity against Leishmania major IR-173 amastigotes assessed as parasite growth inhibition incubated for 72 hrs by resazurin dye based assay; type: functional, organism-based; settings: IR-173, 72 h
Leishmania amazonensis [11] = assay: Antileishmanial activity against Leishmania amazonensis promastigotes assessed as inhibition of parasite growth; type: functional, organism-based
Leishmania infantum [12] = assay: Antileishmanial activity against Leishmania infantum MHOM/MA/67/ITMAP263 promastigotes expressing red-shifted luciferase gene infected in mouse J774 cells incubated for 24 hrs by microplate luminometer analysis; type: functional, organism-based; settings: MHOM/MA/67/ITMAP263, J774, 24 h
Leishmania infantum [13] = assay: Antileishmanial activity against Leishmania infantum MON-1 promastigotes assessed as reduction in parasite viability measured after 48 hrs by MTT assay; type: functional, organism-based; settings: MON-1, 48 h
Leishmania donovani [14] = assay: Antileishmanial activity against Leishmania donovani amastigotes assessed as parasite growth inhibition incubated for 72 hrs by MTS assay; type: functional, organism-based
Leishmania infantum [15] = assay: Antileishmanial activity against Leishmania infantum MHOM/BR/70/BH46 promastigotes assessed as inhibition of parasite growth incubated for 72 hrs by Neubauer chamber based analysis; type: functional, organism-based; settings: MHOM/BR/70/BH46, 72 h
Leishmania donovani [16] = assay: Antileishmanial activity against Leishmania donovani BHU575 promastigotes assessed as cell viability by MTT assay; type: functional, organism-based
Leishmania infantum [17] = assay: Antileishmanial activity against Leishmania infantum amastigotes infected in human THP-1 cells assessed as reduction in parasite growth incubated for 72 hrs by high content imaging analysis; type: functional, organism-based; settings: THP-1, 72 h
Leishmania tropica [18] = assay: Antileishmanial activity against Leishmania tropica promastigotes assessed as inhibition of parasite growth; type: functional, organism-based
Leishmania amazonensis [19] = assay: Antileishmanial activity against Leishmania amazonensis promastigotes assessed as inhibition of parasite growth at 10 uM relative to control; type: functional; set-up: scale not given: the % may be the effect or the level left
Leishmania amazonensis [20] = assay: Antileishmanial activity against Leishmania amazonensis promastigotes assessed as reduction in parasite viability measured after 48 hrs by alamar blue analysis; type: functional, organism-based
Leishmania major [21] = assay: Antileishmanial activity against Leishmania major promastigote assessed as inhibition of parasite growth; type: functional, organism-based
Leishmania amazonensis [22] = assay: Antileishmanial activity against Leishmania amazonensis promastigotes; type: functional, organism-based
Leishmania infantum [23] = assay: Antileishmanial activity against Leishmania infantum promastigote assessed as reduction in parasite growth after 72 hrs by MTT assay; type: functional, organism-based
Leishmania amazonensis [24] = assay: Antileishmanial activity against Leishmania amazonensis promastigotes assessed as reduction in parasite viability after 72 hrs by CCK-8 assay; type: functional, organism-based
Leishmania donovani [25] = assay: Antileishmanial activity against Leishmania donovani promastigotes; type: functional, organism-based
Leishmania donovani [26] = assay: Antileishmanial activity against Leishmania donovani amastigotes; type: functional, organism-based
[27] = Inhibition of recombinant Leishmania mexicana Trypanothione reductase

In the case of `COc1cc(/C=C2/Oc3cc(O)ccc3C2=O)cc(OC)c1`, the Activity (Leishmania donovani [1]) is reported as 109% and the Activity (Leishmania donovani [2]) is reported as 106%.
In the case of `COc1ccc2c(c1)O/C(=C/c1cc(O)cc(O)c1)C2=O`, the Activity (Leishmania donovani [1]) is reported as 108%, the IC50 (Leishmania donovani [3]) is reported as 5.9 µM and the Activity (Leishmania donovani [2]) is reported as 105%.
`NC(=S)N/N=C(/C=C/c1cccnc1)c1cccc(NC(=O)Nc2ccc(Cl)cc2)c1` showed an IC50 (Leishmania donovani [4]) of 3.81 µM.
In the case of `COC(=O)C1=CCC[C@@H]2[C@@](C)(CCc3ccco3)[C@H](C(=O)OC)CC[C@@]12C`, the IC50 (Leishmania amazonensis [5]) is reported as 0.027 µM.
Work on `COc1cc(C(=O)/C=C/c2ccc([N+](=O)[O-])cc2)c(C(C)=O)c2c(OC)cccc12` yielded an IC50 (Leishmania amazonensis [6]) of 3.3 µM, a CC50 (J774.A1) of 373 µM and an IC50 (Leishmania amazonensis [7]) of 18.5 µM.
For `Nc1ccc(C(=O)N/N=C2\C(=O)N(CC(O)COc3cc(=O)oc4ccccc34)c3ccccc32)cc1` (stereo not given), the IC50 (Leishmania tropica [8]) was 1.62 µM and the IC50 (Leishmania tropica [9]) was 2.85 µM.
`Cc1ccc2c(NCCCCCNC(=O)c3cccc(/C=C/C(=O)c4ccc(C)o4)c3)ccnc2c1` showed an IC50 (Leishmania major [10]) of 0.46 µM.
In the case of `COC(=O)C1=CCC[C@@H]2[C@@](C)(CCc3ccco3)[C@H](C(=O)O)CC[C@@]12C`, the IC50 (Leishmania amazonensis [11]) is reported as 0.11 µM.
With `COc1cc(OC)c(C(=O)/C=C/c2cccc(C)c2)c([N+](=O)[O-])c1` the EC50 (Leishmania infantum [12]) was 0.78 µM and the IC50 (Leishmania infantum [13]) was 74.1 µM.
`C/C1=C\C(=O)OC(C(C)(C)C)CCCC(O)CCCC(O)CCCC(O)CCCC(O)CCCC(O)CCCC(O)CCCC(O)CCCCCC(O)C1` (stereo not given) showed an IC50 (Leishmania donovani [14]) of 4.67 µM.
`Cc1cc(Br)cc2c(/C=N\NC(=S)Nc3ccccc3)c[nH]c12` gave an IC50 (Leishmania infantum [15]) of 5.6 µM.
With `CC1=CCC[C@H]2[C@](C)(Cc3cc(O)ccc3O)[C@@H](C)CC[C@]12C` [AVAROL] the IC50 (Leishmania donovani [16]) was 7.42 µM, the IC50 (Leishmania infantum [17]) was 3.19 µM and the IC50 (Leishmania tropica [18]) was 7.08 µM.
`CC[C@H]1C[C@@H]2CN3CCc4c([nH]c5ccccc45)[C@](C(=O)OC)(C2)[C@H]13` [CORONARIDINE] gave an Activity (Leishmania amazonensis [19]) of 97% and an IC50 (Leishmania amazonensis [20]) of 12.5 µg/mL (≈ 36.9 µM).
Work on `COc1c2ccoc2nc2c(OC)cccc12` [GAMMA-FAGARINE] yielded an IC50 (Leishmania major [21]) greater than 74.2 µM.
With `CC1(C)C=Cc2c(ccc3c2OCC2c4cc5c(cc4OC32)OCO5)O1` (stereo not given) [LEIOCARPIN] the IC50 (Leishmania amazonensis [22]) was 7.1 µM, the IC50 (Leishmania infantum [23]) was 15.5 µM and the IC50 (Leishmania amazonensis [24]) was 11.4 µM.
With `O=C1/C(=C/c2ccc(O)c(O)c2)Oc2cc(O)ccc21` [SULFURETIN] the EC50 (Leishmania donovani [25]) was 4.58 µM and the EC50 (Leishmania donovani [26]) was 0.33 µM.
`C[C@H]1[C@H](C)CC[C@]2(C(=O)O)CC[C@]3(C)C(=CC[C@@H]4[C@@]5(C)CC[C@H](O)C(C)(C)[C@@H]5CC[C@]43C)[C@H]12` [URSOLIC ACID] gave an IC50 [27] of 7.03 µM.

Source: ChEMBL document CHEMBL5532635, “The role of natural anti-parasitic guided development of synthetic drugs for leishmaniasis” (Eur J Med Chem, 2023)
